Assay results as given in article PMC8795197, “Safety and activity of WX-0593 (Iruplinalkib) in patients with ALK- or ROS1-rearranged advanced non-small cell lung cancer: a phase 1 dose-escalation and dose-expansion trial” (Signal Transduction and Targeted Therapy, 2022).
Where two headings read alike, the source gives them in different places.

Assays:
Ba/F3 (EML4-ALK-WT) = test: Cell proliferation inhibition assay; assay type: cell-based
[1] = system: patients treated with ALK TKIs; conditions: cited from earlier work
[2] = system: NCI-H1975 (EGFR mutant L858R/T790M); test: Cell proliferation inhibition assay; assay type: cell-based
LU-01-0319R NSCLC PDX = test: PDX model resistant to crizotinib; assay type: in vivo; conditions: WX-0593 2.5, 5, 10 mg/kg; ceritinib 10/20 mg/kg; brigatinib 10 mg/kg
Ba/F3 (EML4-ALK-C1156Y) = test: Cell proliferation inhibition assay; assay type: cell-based
Ba/F3 CD74-ROS1-S1986F = test: Growth of transfected Ba/F3 cells (CellTiter-Glo, 3 days); assay type: cell-based; conditions: Mus musculus, BaF3
Procedure: (§1) Harvest cells during the logarithmic growth period and count cells using blood counting chamber. Adjust cell concentration with culture medium. Add 90µl cell suspensions to two 96-well plates to the final cell density as described before. Incubate the plate overnight in humidified incubator at 37℃ with 5% CO2. Dispense 10µl drug solution (10×) to each well (triplicate for each concentration), and the DMSO final concentration in culture medium is 0.1% [v/v]. Culture the plates for 3 days.On Day 3, Read luminescent using Multi Label Reader. The software of GraphPad Prism was used to calculate IC50. The graphical curves were fitted using a nonlinear regression model with a sigmoidal dose response.

Ba/F3 CD74-ROS1-L1951R = test: as above; assay type: cell-based; conditions: Mus musculus, BaF3
Procedure: as §1

Ba/F3 CD74-ROS1-D2033N = test: as above; assay type: cell-based; conditions: Mus musculus, BaF3
Procedure: as §1

Ba/F3 CD74-ROS1-S1986Y = test: as above; assay type: cell-based; conditions: Mus musculus, BaF3
Procedure: as §1

[3] = system: Ba/F3 SLC34A2-ROS1-L2026M; test: as above; assay type: cell-based; conditions: Mus musculus, BaF3
Procedure: as §1

Ba/F3 SLC34A2-ROS1 = test: as above; assay type: cell-based; conditions: Mus musculus, BaF3
Procedure: as §1

[4] = system: Ba/F3 SLC34A2-ROS1-G2032R; test: as above; assay type: cell-based; conditions: Mus musculus, BaF3
Procedure: as §1

Karpas299 (NPM-ALK) = test: Cell proliferation inhibition assay; assay type: cell-based
[5] = system: 27 non-target kinases (MAP4K4 ... INSR, EGFR wild type); test: Inhibitory study of 27 non-target kinases; assay type: biochemical; conditions: except for EGFR wild type
Ba/F3 (EML4-ALK-L1196M) = test: Cell proliferation inhibition assay; assay type: cell-based
Ba/F3 ALK-G1269A = test: Growth of transfected Ba/F3 cells (CellTiter-Glo, 3 days); assay type: cell-based; conditions: Mus musculus, BaF3
Procedure: as §1, with “days. On” for “days.On”

Ba/F3 ALK-WT = test: as above; assay type: cell-based; conditions: Mus musculus, BaF3
Procedure: as §1, with “days. On” for “days.On”

Ba/F3 ALK-G1202del = test: as above; assay type: cell-based; conditions: Mus musculus, BaF3
Procedure: as §1, with “days. On” for “days.On”

Ba/F3 ALK-L1152R = test: as above; assay type: cell-based; conditions: Mus musculus, BaF3
Procedure: as §1, with “days. On” for “days.On”

Ba/F3 ALK-F1174C = test: as above; assay type: cell-based; conditions: Mus musculus, BaF3, ALK-F1174C
Procedure: as §1, with “days. On” for “days.On”

Ba/F3 ALK-C1156Y = test: as above; assay type: cell-based; conditions: Mus musculus, BaF3
Procedure: as §1, with “days. On” for “days.On”

Ba/F3 ALK-G1202R = test: as above; assay type: cell-based; conditions: Mus musculus, BaF3
Procedure: as §1, with “days. On” for “days.On”

Ba/F3 ALK-I1171T = test: as above; assay type: cell-based; conditions: Mus musculus, BaF3
Procedure: as §1, with “days. On” for “days.On”

Ba/F3 ALK-I1171N = test: as above; assay type: cell-based; conditions: Mus musculus, BaF3
Procedure: as §1, with “days. On” for “days.On”

Ba/F3 ALK-F1174L = test: as above; assay type: cell-based; conditions: Mus musculus, BaF3
Procedure: as §1, with “days. On” for “days.On”

Ba/F3 ALK-V1180L = test: as above; assay type: cell-based; conditions: Mus musculus, BaF3
Procedure: as §1, with “days. On” for “days.On”

Ba/F3 ALK-L1152P = test: as above; assay type: cell-based; conditions: Mus musculus, BaF3
Procedure: as §1, with “days. On” for “days.On”

Ba/F3 ALK-T1151Tins = test: as above; assay type: cell-based; conditions: Mus musculus, BaF3
Procedure: as §1, with “days. On” for “days.On”

Ba/F3 ALK-I1171S = test: as above; assay type: cell-based; conditions: Mus musculus, BaF3, ALK-I1171S
Procedure: as §1, with “days. On” for “days.On”

Ba/F3 ALK-L1196M = test: as above; assay type: cell-based; conditions: Mus musculus, BaF3
Procedure: as §1, with “days. On” for “days.On”

[6] = system: NSCLC patients with ALK or ROS1 rearrangement; conditions: ALK-rearranged patients; cited from earlier work
Ba/F3 ALK-F1174V = test: Growth of transfected Ba/F3 cells (CellTiter-Glo, 3 days); assay type: cell-based; conditions: Mus musculus, BaF3; ALK-F1174V; read-out: IC50
Procedure: as §1, with “days. On” for “days.On”

[7] = Grades 1 and 2 adverse reactions
[8] = serious adverse events in more than 2 patients

## COc1cc(N2CCC(N3CCN(C)CC3)CC2)ccc1Nc1ncc(Cl)c(Nc2ccccc2P(C)(C)=O)n1 [Brigatinib]
Ba/F3 (EML4-ALK-WT)
  growth inhibition: significantly inhibits the growth
[1]; [7]
  coughing: 26%
  diarrhea: 36%
  fatigue: 36%
  headache: 26%
  nausea: 45%
[1]
  diarrhea, % of patients: 41%
  dose reduction due to TEAEs, % of patients: 14%
[1]; one Grade 3 ALT increased, one Grade 4 dyspnea and Grade 3 hypoxia
  DLTs in the tolerability study: Two
[1]; [8]
  coughing: 4%
  dyspnea: 4%
  hypoxia: 4%
  pleural effusion: 4%
  pneumonia: 7%
[2]
  growth inhibition: somewhat inhibits the growth
LU-01-0319R NSCLC PDX
  anti-tumor effect: significant effects against crizotinib-induced resistance
Ba/F3 (EML4-ALK-C1156Y)
  growth inhibition: significantly inhibits the growth
Ba/F3 CD74-ROS1-S1986F
  IC50: 20.2 nM
Ba/F3 CD74-ROS1-L1951R
  IC50: 775 nM
Ba/F3 CD74-ROS1-D2033N
  IC50: 36.5 nM
Ba/F3 CD74-ROS1-S1986Y
  IC50: 12.5 nM
[3]
  IC50: 48 nM
Ba/F3 SLC34A2-ROS1
  IC50: 22 nM
[4]
  IC50: 846 nM
Karpas299 (NPM-ALK)
  growth inhibition: significantly inhibits the growth
[5]
  inhibitory activity against non-target kinases: no significant inhibitory activity
Ba/F3 (EML4-ALK-L1196M)
  growth inhibition: significantly inhibits the growth
Ba/F3 ALK-G1269A
  IC50: 31 nM
Ba/F3 ALK-WT
  IC50: 25 nM
Ba/F3 ALK-G1202del
  IC50: 1000 nM
Ba/F3 ALK-L1152R
  IC50: 10.4 nM
Ba/F3 ALK-F1174C; first listing (r10)
  IC50: 97 nM
Ba/F3 ALK-F1174C; second listing (r15)
  IC50: 51.6 nM
Ba/F3 ALK-C1156Y
  IC50: 39 nM
Ba/F3 ALK-G1202R
  IC50: 340 nM
Ba/F3 ALK-I1171T
  IC50: 18.9 nM
Ba/F3 ALK-I1171N
  IC50: 35 nM
Ba/F3 ALK-F1174L
  IC50: 31 nM
Ba/F3 ALK-V1180L
  IC50: 10.4 nM
Ba/F3 ALK-L1152P
  IC50: 1.5 nM
Ba/F3 ALK-T1151Tins
  IC50: 35 nM
Ba/F3 ALK-I1171S; first listing (r12)
  IC50: 93 nM
Ba/F3 ALK-I1171S; second listing (r19)
  IC50: 40 nM
Ba/F3 ALK-L1196M
  IC50: 31 nM

## Cc1cc(Nc2ncc(Cl)c(Nc3ccccc3S(=O)(=O)C(C)C)n2)c(OC(C)C)cc1C1CCNCC1 [Ceritinib]
[6]
  ORR: 58%
[1]; [7]
  ALT increased: 35%
  diarrhea: 75%
  fatigue: 47%
  nausea: 82%
  vomiting: 65%
[1]
  diarrhea, % of patients: 75%
  dose reduction due to TEAEs, % of patients: 62%
LU-01-0319R NSCLC PDX
  anti-tumor effect: significant effects against crizotinib-induced resistance
Ba/F3 CD74-ROS1-S1986F
  IC50: 49.6 nM
Ba/F3 CD74-ROS1-L1951R
  IC50: 642 nM
Ba/F3 CD74-ROS1-D2033N
  IC50: 159 nM
Ba/F3 CD74-ROS1-S1986Y
  IC50: 32.5 nM
[3]
  IC50: 54 nM
Ba/F3 SLC34A2-ROS1
  IC50: 14 nM
[4]
  IC50: 1100 nM
Ba/F3 ALK-G1269A; ALK-G1269A, read-out: IC50
  IC50: 16 nM
Ba/F3 ALK-WT; ALK-WT, read-out: IC50
  IC50: 13 nM
Ba/F3 ALK-F1174V
  IC50: 53.7 nM
Ba/F3 ALK-G1202del; ALK-G1202del, read-out: IC50
  IC50: 925 nM
Ba/F3 ALK-L1152R; ALK-L1152R, read-out: IC50
  IC50: 116 nM
Ba/F3 ALK-F1174C; first listing (r10), read-out: IC50
  IC50: 95 nM
Ba/F3 ALK-F1174C; second listing (r15), read-out: IC50
  IC50: 79.5 nM
Ba/F3 ALK-C1156Y; ALK-C1156Y, read-out: IC50
  IC50: 87 nM
Ba/F3 ALK-G1202R; ALK-G1202R, read-out: IC50
  IC50: 502 nM
Ba/F3 ALK-I1171T; ALK-I1171T, read-out: IC50
  IC50: 27.8 nM
Ba/F3 ALK-I1171N; ALK-I1171N, read-out: IC50
  IC50: 41.8 nM
Ba/F3 ALK-F1174L; ALK-F1174L, read-out: IC50
  IC50: 21 nM
Ba/F3 ALK-V1180L; ALK-V1180L, read-out: IC50
  IC50: 15.6 nM
Ba/F3 ALK-L1152P; ALK-L1152P, read-out: IC50
  IC50: 71.5 nM
Ba/F3 ALK-T1151Tins; ALK-T1151Tins, read-out: IC50
  IC50: 96 nM
Ba/F3 ALK-I1171S; first listing (r12), read-out: IC50
  IC50: 97 nM
Ba/F3 ALK-I1171S; second listing (r19), read-out: IC50
  IC50: 45.8 nM
Ba/F3 ALK-L1196M; ALK-L1196M, read-out: IC50
  IC50: 33 nM
